Key:
TLR4/MD2 complex = target: T1, TLR4/MD2 complex (Mus musculus, UniProt Q9JHF9+Q9QUK6); assay: Cell surface expression of TLR4/MD2 on HEK/TLR4(+) cells (flow cytometry); format: cell-based, murine; details: HEK/TLR4 cells treated with SDF-1
T1 construct: expressed in transfected cells; host or cells: HEK 293 (HEK/TLR4(+))
T1 sequence (Q9QUK6 26-835): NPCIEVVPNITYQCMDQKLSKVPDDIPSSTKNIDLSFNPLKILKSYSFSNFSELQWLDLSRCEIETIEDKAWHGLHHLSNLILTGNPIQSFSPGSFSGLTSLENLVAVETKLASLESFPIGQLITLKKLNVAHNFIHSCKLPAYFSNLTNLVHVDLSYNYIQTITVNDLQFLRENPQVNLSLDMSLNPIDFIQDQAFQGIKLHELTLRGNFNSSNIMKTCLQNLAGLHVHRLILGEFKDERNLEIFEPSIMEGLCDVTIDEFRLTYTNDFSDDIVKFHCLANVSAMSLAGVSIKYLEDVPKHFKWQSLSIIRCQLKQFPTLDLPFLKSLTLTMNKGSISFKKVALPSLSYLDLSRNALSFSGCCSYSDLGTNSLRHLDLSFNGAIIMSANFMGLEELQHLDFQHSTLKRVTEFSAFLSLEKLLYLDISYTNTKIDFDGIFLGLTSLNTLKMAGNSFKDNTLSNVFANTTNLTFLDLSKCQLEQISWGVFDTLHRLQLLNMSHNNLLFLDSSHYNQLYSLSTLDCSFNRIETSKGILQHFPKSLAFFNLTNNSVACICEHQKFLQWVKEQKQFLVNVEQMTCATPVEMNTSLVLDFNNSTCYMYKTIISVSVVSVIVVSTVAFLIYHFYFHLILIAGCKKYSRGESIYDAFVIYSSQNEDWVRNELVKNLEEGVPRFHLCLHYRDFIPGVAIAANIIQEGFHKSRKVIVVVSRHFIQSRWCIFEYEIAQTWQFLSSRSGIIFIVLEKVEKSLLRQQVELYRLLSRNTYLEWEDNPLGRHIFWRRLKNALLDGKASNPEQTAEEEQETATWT
T1 sequence (Q9JHF9 19-160): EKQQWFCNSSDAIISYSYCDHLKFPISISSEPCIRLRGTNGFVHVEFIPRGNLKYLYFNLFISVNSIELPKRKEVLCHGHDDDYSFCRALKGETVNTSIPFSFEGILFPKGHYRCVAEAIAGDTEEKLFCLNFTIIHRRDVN
Method: FIG. 2. TLR4 signaling is conditioned by extracellular matrix. The impact of extracellular matrix on TLR4 activation was tested in cells cultured in wells coated with extracellular matrix. (A) and (B) Inhibition of NFκB activation by extracellular matrix in HEK/TLR4(+) cells. HEK/TLR4(+) cells were cultured in wells coated with extracellular matrix (ECM) or fibronectin (FN) and transfected with NFκB- and control-luciferase reporter genes. TLR4 signaling in response to increasing amounts of heparan sulfate (A) or LPS (B) was measured six hours after stimulation. […] The cells were tested for cell surface expression of the TLR4/MD2 complex by flow cytometry using monoclonal antibodies specific for that complex. […] (D) and (E) Inhibition of p38 MAP Kinase activation by extracellular matrix in RAW 264 cells. (D) RAW 264.7 murine macrophages were cultured in wells coated with extracellular matrix (ECM) or fibronectin (FN). The cells were stimulated with heparan sulfate (left panel) or LPS (right panel) for the indicated time (minutes), after which the cells were lysed and activated p38 MAPK (phospho p38) was measured by immunoblotting. […] Similar results were obtained for cells stimulated with LPS. The data shown are representative of 3 separate experiments and indicate that activation of TLR4 signaling is inhibited by extracellular matrix.

TLR4 [1] = target: T2, TLR4 (Mus musculus, UniProt Q9JHF9+Q9QUK6); assay: NFκB-luciferase reporter assay in HEK/TLR4(+) cells with perturbed CXCR4 (Examples 2 and 3); format: cell-based, murine
T2 construct: expressed in transfected cells
T2 sequence (Q9QUK6 26-835): T1 sequence (Q9QUK6 26-835)
T2 sequence (Q9JHF9 19-160): T1 sequence (Q9JHF9 19-160)
Method: HEK 293 cells (human embryonic kidney cells) from American Type Culture Collection (ATCC) were cultured in DMEM containing 10% fetal bovine serum, penicillin, and streptomycin. […] TLR4/MD2/CD14 expressing HEK 293 cells were selected using appropriate antibiotic selection medium and were then cloned by limiting dilution in the same medium. Control cells were prepared using empty expression vectors and identical transfection and selection procedures.
HEK 293 cell lines stably expressing TLR4/MD2/CD14 were seeded into 24-well tissue culture plates (2×10^5 cells/well) and allowed to adhere at 37° C. overnight. The adherent cells were transfected with 0.1 μg pTK Renilla-luciferase and 0.1 μg NFκB-firefly-luciferase using Superfect Transfection Reagent (Qiagen) and then cultured for 24 hours at 37° C. in 1 mL DMEM containing 0.5% fetal bovine serum. The cells were stimulated as indicated, washed with phosphate buffered saline, and lysed with 150 μL Passive Lysis Buffer (Promega). The amount of Renilla- and Firefly-luciferase in the cell lysates was assayed simultaneously using Dual-Luciferase Reporter Assay System (Promega) and a TD-20/20 lumenometer (Turner Designs, Sunnyvale, Calif.). Activation of NFκB-firefly luciferase reporter activity is given as the ratio of firefly luciferase to the internal control Renilla luciferase activity, determined and expressed as the mean of triplicate wells.

CXCR4 = target: T3, CXCR4 (Homo sapiens, UniProt P61073); assay: CXCR4 cell surface level on Jurkat T cells (FACS, internalization of CXCR4); format: cell-based; details: 37° C. for 30 minutes
T3 construct: endogenous in cells; host or cells: Jurkat T cells
T3 sequence (P61073 whole entry): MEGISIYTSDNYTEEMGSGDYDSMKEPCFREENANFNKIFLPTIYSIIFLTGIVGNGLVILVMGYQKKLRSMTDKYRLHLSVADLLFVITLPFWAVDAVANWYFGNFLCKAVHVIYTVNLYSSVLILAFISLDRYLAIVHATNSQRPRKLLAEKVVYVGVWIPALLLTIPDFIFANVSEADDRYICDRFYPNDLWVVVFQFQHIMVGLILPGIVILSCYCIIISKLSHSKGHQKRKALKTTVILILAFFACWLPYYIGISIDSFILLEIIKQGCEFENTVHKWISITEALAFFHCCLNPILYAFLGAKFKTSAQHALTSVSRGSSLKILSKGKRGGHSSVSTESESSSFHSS
Method: To determine if the purified, recombinant [Hisx6]SDF-1 polypeptide activates CXCR4, Jurkat T cells were stimulated (37° C. for 30 minutes) with buffer alone or with buffer containing a synthetic SDF-1 polypeptide or the purified recombinant [Hisx6]SDF-1 polypeptide. Control cells were stimulated with bovine albumin. The treated cells were stained with fluorochrome-labeled anti-CXCR4 antibodies, and the amount of CXCR4 on the cell surface was measured by the intensity of CXCR4 antibody staining using FACS.

TLR4 [2] = target: T2, TLR4; assay: NFκB-luciferase reporter assay in HEK/TLR4(+) cells (Example 1: TLR4 activators, extracellular matrix, elastase); format: cell-based, murine
From the text: HEK 293 cells were stabily transfected with the TLR4 and MD2 or CD14 expression plasmids, each of which encode a component of a complete, functional TLR4 receptor complex (Akira and Takeda, Nat. Rev. Immunol., 4:499-511 (2004)) using Superfect (Qiagen, Valencia, Calif.) following the manufacturer's instructions. TLR4- and MD2- or CD14-expressing HEK 293 cells were obtained by culturing the transfected cells with appropriate antibiotic selection medium and cloning by limiting dilution in the selection medium. HEK 293 cells expressing TLR4, MD2, and CD14 were generated by transfecting HEK 293 cells expressing TLR4 and MD2 with the CD14 expression plasmid and selecting clones using appropriate antibiotic containing medium. Cell lines expressing TLR4 and MD2 and/or CD14 were then maintained in DMEM supplemented with 10% fetal bovine serum and the appropriate selection antibiotics. Control cell lines were transfected with empty expression vectors and incubated in selection conditions as described above.
Activation of NFκB was measured using a NFκB-luciferase reporter assay. HEK 293 cell lines stabily expressing TLR4, MD2, and/or CD14, or control cells were seeded into 24 well tissue culture plates (2×10^5 cells/well) in 1.0 mL DMEM containing 10% fetal bovine serum and penicillin and streptomycin. The cells were allowed to adhere to the culture wells at 37° C. overnight and were then transfected with 0.1 μg pTK Renilla-luciferase and 0.1 μg NFκB-firefly-luciferase using Superfect Transfection Reagent (Qiagen). Following transfection, the cells were washed once with phosphate buffered saline and cultured for 24 hours at 37° C. in 1.0 mL DMEM containing 0.5% fetal bovine serum. After various treatments, the culture medium was aspirated, and the cells were washed once with PBS. The cells were then lysed in 150 μL Passive Lysis Buffer (Promega) with rocking at room temperature for 15 minutes. Renilla- and Firefly-luciferase were assayed simultaneously using Dual-Luciferase Reporter Assay System (Promega) and a TD-20/20 luminometer (Turner Designs, Sunnyvale, Calif.). Activation of NFκB was reported as a ratio of the firefly luciferase activity to the constitutively expressed Renilla luciferase internal control, and as the mean of triplicate wells.

TLR4 [3] = assay: CD86 expression in mouse spleen after intrasplenic injection (immunopathology); format: in vivo, mice; details: mice which lack TLR4 function (ScN), injected into spleen
Method: (§1) TLR4-deficient C57BL/10ScN mice, which have a deletion in chromosome 4 that encompasses the TLR4 gene, were obtained from The National Cancer Institute (Bethesda, Md.). C57BL/10SnJ mice, which have wild type TLR4 and are congenic with C57BL/10ScN were obtained from the Jackson Laboratory (Bar Harbor, Me.).
(§2) Mice were anesthetized, and the spleen was directly visualized through an incision in the lateral abdominal wall. TLR4 activators dissolved in 50 μL of PBS were injected into the spleen as follows. The solutions were injected as a 27 gauge needle was withdrawn along the long axis of the organ. Twelve hours after injection, the spleens were harvested and frozen in liquid nitrogen for analysis of CD86 expression. Studies were performed at twelve hours because preliminary experiments indicated CD86 expression became clearly detectable at this time. Longitudinal tissue sections were prepared from the center of the spleen and stained as described elsewhere (Dempsey et al., Glycobiology, 10:467-475 (2000)) with the following modifications. Secondary detection antibodies were diluted in M.O.M. diluent (Vector Laboratories, Burlingame, Calif.) and preabsorbed with mouse serum (Jackson ImmunoResearch Laboratories, West Grove, Pa.). Fluorescent images were converted to grayscale using SPOT software (Diagnostic Instruments, Sterling Heights, Mich.).

TLR4 [4] = target: T4, TLR4 (Mus musculus, UniProt Q9QUK6); assay: as above; format: in vivo, mice; details: wild-type TLR4 mice, 12 hours
T4 construct: Spleens of C57BL/10SnJ mice with wild-type TLR4 (SnJ) were injected with 10 ng LPS; from tissue; host or cells: mouse spleen in vivo (C57BL/10SnJ; control C57BL/10ScN lacks the TLR4 gene)
T4 sequence (Q9QUK6 26-835): T1 sequence (Q9QUK6 26-835)
T4 sequence (Q9JHF9 19-160 partner): T1 sequence (Q9JHF9 19-160)
Method: as §1, §2

## SDF-1: the agonist for CXCR4; natural ligand polypeptide
TLR4/MD2 complex
  Expression of TLR4: did not alter expression of TLR4
TLR4 [1]; HEK/TLR4(+) cells stimulated simultaneously with LPS and 50 nM SDF-1
  TLR4 activation by LPS (NFκB-luciferase): indifferent to the presence of LPS at any concentration tested
TLR4 [1]; HEK/TLR4(+) cells, no LPS
  NFκB-luciferase reporter activation by the agent itself: slight activation of the luciferase reporter

## [Hisx6]SDF-1: recombinant, histidine-tagged murine SDF-1 polypeptide produced in E. coli
CXCR4
  Amount of CXCR4 on the cell surface: stimulate a decrease in CXCR4 on cell surfaces

## elastase
TLR4 [2]; cells grown on fibronectin
  TLR4 response to elastase: did not respond to elastase
TLR4 [2]; cells on extracellular matrix, elastase 0.1 U/mL, 1 μg/mL heparan sulfate, 4 hours
  Increase of TLR4 response to heparan sulfate versus no elastase: about 3 fold
TLR4 [2]; cells on extracellular matrix, elastase 0.3 U/mL, 4 hours
  TLR4 response without added agonist: stimulated full TLR4 responses without addition of agonist
TLR4 [3]
  Increase in CD86 expression: not observed
TLR4 [4]; 0.01 U elastase into spleen
  Expression of CD86 in splenocytes: only modestly increased expression of CD86
TLR4 [4]; 0.1 U elastase alone
  Expression of CD86 in splenocytes: profoundly increased expression of CD86
TLR4 [4]; small amount (0.01 U) of elastase along with 1 ng LPS
  Expression of CD86 in splenocytes: profoundly increased expression of CD86

## heparan sulfate
TLR4 [2]; 10 μg/mL heparan sulfate or 10 ng/mL LPS, 6 hours
  Activation of HEK/TLR4(+) cells (NFκB-luciferase): responded both to LPS and heparan sulfate
TLR4 [2]; cells grown on fibronectin, 1 μg/mL HS, 4 hours
  TLR4 response to heparan sulfate: responded fully to HS

## pertussis toxin
TLR4 [1]; HEK/TLR4(+) cells treated with 0.1 μg/mL pertussis toxin
  TLR4 activation by LPS (NFκB-luciferase): diminished TLR4 activation by LPS

Reference: patent publication US8153592B2, “Modulating toll-like receptor activity” (Mayo Foundation for Medical Education and Research, priority 2005, dated 2012)
